± gives the expanded uncertainty stated by the source.
Conditions: Liquid, Ebulliometric method (Recirculating still)

## ClC(Cl)Cl [trichloromethane]
334.12 K
  vapor or sublimation pressure: 101.3 ± 3.5 kPa

## CCC(=O)OC [methyl propanoate]
352.47 K
  vapor or sublimation pressure: 101.3 ± 3.5 kPa

## C=CCO [2-propenol]
369.94 K
  vapor or sublimation pressure: 101.3 ± 3.5 kPa

## CCOC(C)=O [ethyl acetate]
350.28 K
  vapor or sublimation pressure: 101.3 ± 3.5 kPa
